Columns and labels:
[1] = tested on: C-myc quadruplex (DNA, G4) TGGGGAGGGTGGGGAGGGTGGGGAAGG; assay: fluorescence titration; conditions: K+ 100 mM (KCl); 10 mM Tris-HCl, 0.1 mM EDTA, pH 7.5
[2] = tested on: C-myc quadruplex (DNA, G4) TGGGGAGGGTGGGGAGGGTGGGGAAGG; assay: fluorescent intercalator displacement titration; conditions: K+ 100 mM (KCl); 10 mM Tris-HCl, 0.1 mM EDTA, pH 7.5; thiazole orange displaced
[3] = tested on: C-myc quadruplex (DNA, G4) TGGGGAGGGTGGGGAGGGTGGGGAAGG; assay: circular dichroism titration; conditions: K+ 100 mM (KCl); 10 mM Tris-HCl, 0.1 mM EDTA, pH 7.5, 20 °C; 10 µM strand; induced CD only above ratio two
[4] = tested on: C-myc quadruplex (DNA, G4) TGGGGAGGGTGGGGAGGGTGGGGAAGG; assay: UV-Vis absorption (hypochromism, 19 nm bathochromic shift); conditions: K+ 100 mM (KCl); 10 mM Tris-HCl, 0.1 mM EDTA, pH 7.5, 22–24 °C; 5 µM DNA, 5 µM ligand
[5] = tested on: TFO C-myc duplex (Table 2: C-myc duplex) (DNA, duplex) AGGGAGGGAGGTAAGAAAAAGGG/CCCTTTTTCTTACCTCCCTCCCT; assay: FID screen (thiazole orange displacement, single concentration); conditions: K+ 100 mM (KCl); 10 mM Tris-HCl, 0.1 mM EDTA, pH 7.5, 21–23 °C; 0.25 µM duplex, 0.50 µM TO, ligand 1:1

binding [1] | DC50 [2] | binding [3] | binding [4] | binding [5] | Structure (SMILES)
yes | – | – | – | – | CN1C(=Cc2cc[n+](C)c3ccccc23)Sc2ccccc21
– | > 5.5 µM | – | – | – | NC[C@@H]1O[C@H](O[C@H]2[C@@H](O)[C@H](O[C@@H]3[C@@H](O)[C@H](N)C[C@H](N)[C@H]3O[C@H]3O[C@H](CN)[C@@H](O)[C@H](O)[C@H]3N)O[C@@H]2CO)[C@H](N)[C@@H](O)[C@@H]1O
– | 1.58 ± 0.01 µM | yes | yes | yes | CN1CCN(c2ccc3nc(-c4ccc5nc(-c6ccc(O)cc6)[nH]c5c4)[nH]c3c2)CC1

Source: PMC6270413 (2013)
